Experiments:
Mu-type opioid receptor [1] = target: T1, Mu-type opioid receptor (Homo sapiens, UniProt P35372); assay: Agonist activity at human mu opioid receptor expressed in HEK293 cells assessed as inhibition of forskolin-stimulated cAMP accumulation by fluorescence assay; assay type: functional, cell-based
Mu-type opioid receptor [2] = target: T1, Mu-type opioid receptor; assay: Agonist activity at human mu opioid receptor expressed in HEK293 cells assessed as beta-arrestin recruitment by chemiluminescence assay; assay type: cell-based
[3] = Cardiotoxicity in isolated rabbit left ventricular wedge model assessed as proarrhyhmic event; assay type: toxicity, tissue-based, Oryctolagus cuniculus, Heart left ventricle
[4] = target: Voltage-gated inwardly rectifying potassium channel KCNH2 (Homo sapiens, UniProt Q12809); assay: Inhibition of human ERG channel expressed in HEK293 cells by whole-cell patch clamp technique; assay type: cell-based
[5] = target: Kappa-type opioid receptor (Homo sapiens, UniProt P41145); assay: Agonist activity at human kappa opioid receptor expressed in HEK293 cells assessed as inhibition of forskolin-stimulated cAMP accumulation by fluorescence assay; assay type: functional, cell-based
Kappa-type opioid receptor, sequence (P41145 whole entry): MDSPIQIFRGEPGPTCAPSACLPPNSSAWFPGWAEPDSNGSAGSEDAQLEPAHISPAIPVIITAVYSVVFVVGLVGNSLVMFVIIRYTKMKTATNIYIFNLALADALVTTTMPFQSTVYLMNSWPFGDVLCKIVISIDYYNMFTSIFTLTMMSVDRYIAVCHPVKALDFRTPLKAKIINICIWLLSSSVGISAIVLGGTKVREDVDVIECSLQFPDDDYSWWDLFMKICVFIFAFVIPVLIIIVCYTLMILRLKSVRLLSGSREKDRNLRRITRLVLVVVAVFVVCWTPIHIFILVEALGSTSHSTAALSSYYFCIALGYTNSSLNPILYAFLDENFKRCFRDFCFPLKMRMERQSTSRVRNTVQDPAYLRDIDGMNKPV

[6] = target: Delta-type opioid receptor (Homo sapiens, UniProt P41143); assay: Agonist activity at human delta opioid receptor expressed in HEK293 cells assessed as inhibition of forskolin-stimulated cAMP accumulation by fluorescence assay; assay type: functional, cell-based
Cynomolgus monkey [7] = assay: Cardiotoxicity in cynomolgus monkey assessed as QT interval; assay type: toxicity, organism-based, Macaca fascicularis; settings: in vivo
[8] = target: T2, Sodium channel protein type 5 subunit alpha (Homo sapiens, UniProt Q14524); assay: Inhibition of human Nav 1.5 phasic ion channel expressed in HEK293 cells by whole-cell patch clamp technique; assay type: cell-based
T2 sequence (Q14524 whole entry): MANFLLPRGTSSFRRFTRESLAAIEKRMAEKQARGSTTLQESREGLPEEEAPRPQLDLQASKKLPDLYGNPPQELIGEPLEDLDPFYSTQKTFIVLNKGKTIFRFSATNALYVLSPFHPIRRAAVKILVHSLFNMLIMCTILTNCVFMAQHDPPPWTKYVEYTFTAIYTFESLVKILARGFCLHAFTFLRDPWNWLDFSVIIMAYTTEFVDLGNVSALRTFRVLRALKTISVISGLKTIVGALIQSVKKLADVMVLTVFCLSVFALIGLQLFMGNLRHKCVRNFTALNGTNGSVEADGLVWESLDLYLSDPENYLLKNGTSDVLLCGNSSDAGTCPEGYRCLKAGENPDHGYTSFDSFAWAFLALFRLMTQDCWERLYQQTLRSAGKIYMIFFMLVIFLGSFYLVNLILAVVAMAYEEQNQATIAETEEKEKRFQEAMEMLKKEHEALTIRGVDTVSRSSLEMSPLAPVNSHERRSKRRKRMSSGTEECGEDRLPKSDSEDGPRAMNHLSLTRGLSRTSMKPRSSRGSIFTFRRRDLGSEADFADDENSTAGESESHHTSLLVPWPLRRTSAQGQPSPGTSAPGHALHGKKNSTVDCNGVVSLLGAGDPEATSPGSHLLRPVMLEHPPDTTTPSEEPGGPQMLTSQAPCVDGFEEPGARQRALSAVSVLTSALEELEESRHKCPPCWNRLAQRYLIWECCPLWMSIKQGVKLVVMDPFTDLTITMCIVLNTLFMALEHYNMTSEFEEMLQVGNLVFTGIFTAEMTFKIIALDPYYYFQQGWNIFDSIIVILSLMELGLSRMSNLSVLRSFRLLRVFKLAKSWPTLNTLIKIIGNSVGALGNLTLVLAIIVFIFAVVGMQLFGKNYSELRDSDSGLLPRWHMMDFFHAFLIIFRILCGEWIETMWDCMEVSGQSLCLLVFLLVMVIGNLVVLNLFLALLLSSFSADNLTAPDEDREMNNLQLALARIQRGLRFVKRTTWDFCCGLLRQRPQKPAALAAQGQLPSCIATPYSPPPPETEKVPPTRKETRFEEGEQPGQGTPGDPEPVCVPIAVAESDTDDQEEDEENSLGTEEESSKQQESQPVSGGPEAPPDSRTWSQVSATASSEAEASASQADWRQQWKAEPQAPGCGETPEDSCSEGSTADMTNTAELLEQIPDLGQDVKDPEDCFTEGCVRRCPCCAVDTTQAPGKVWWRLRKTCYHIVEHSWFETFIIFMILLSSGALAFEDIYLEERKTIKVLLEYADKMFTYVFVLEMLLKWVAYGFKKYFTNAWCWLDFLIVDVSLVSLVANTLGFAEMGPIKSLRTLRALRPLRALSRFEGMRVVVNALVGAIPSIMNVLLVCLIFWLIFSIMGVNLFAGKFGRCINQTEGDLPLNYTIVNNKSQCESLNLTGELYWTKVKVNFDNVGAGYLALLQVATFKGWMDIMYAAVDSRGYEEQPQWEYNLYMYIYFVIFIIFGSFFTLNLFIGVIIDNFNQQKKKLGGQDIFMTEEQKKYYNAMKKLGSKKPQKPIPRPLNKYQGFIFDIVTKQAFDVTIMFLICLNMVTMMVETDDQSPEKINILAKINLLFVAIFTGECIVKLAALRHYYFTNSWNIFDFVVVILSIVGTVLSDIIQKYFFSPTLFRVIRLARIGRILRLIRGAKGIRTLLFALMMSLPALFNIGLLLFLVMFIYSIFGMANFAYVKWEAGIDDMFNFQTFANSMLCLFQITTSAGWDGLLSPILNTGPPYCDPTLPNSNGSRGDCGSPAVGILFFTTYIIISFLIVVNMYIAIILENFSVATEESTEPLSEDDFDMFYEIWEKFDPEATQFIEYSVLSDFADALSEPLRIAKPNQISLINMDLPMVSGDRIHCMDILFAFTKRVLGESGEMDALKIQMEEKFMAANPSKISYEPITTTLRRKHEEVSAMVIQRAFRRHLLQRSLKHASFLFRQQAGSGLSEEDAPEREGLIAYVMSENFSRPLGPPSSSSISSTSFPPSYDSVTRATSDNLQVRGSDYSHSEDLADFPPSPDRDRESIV

Cynomolgus monkey [9] = assay: Cardiotoxicity in cynomolgus monkey assessed as QRS duration; assay type: toxicity, organism-based, Macaca fascicularis; settings: in vivo
[10] = Cardiotoxicity in isolated rabbit left ventricular wedge model assessed as increase in Tp-e interval at 1 uM; assay type: toxicity, tissue-based, Oryctolagus cuniculus, Heart left ventricle
[11] = Cardiotoxicity in isolated rabbit left ventricular wedge model assessed as torsade de pointes score up to 30 uM; assay type: toxicity, tissue-based, Oryctolagus cuniculus, Heart left ventricle
[12] = Cardiotoxicity in isolated rabbit left ventricular wedge model assessed as increase in QT interval at 0.3 uM; assay type: toxicity, tissue-based, Oryctolagus cuniculus, Heart left ventricle
[13] = target: T2, Sodium channel protein type 5 subunit alpha; assay: Inhibition of human Nav 1.5 tonic ion channel expressed in HEK293 cells by whole-cell patch clamp technique; assay type: cell-based
Cynomolgus monkey [14] = assay: Cardiotoxicity in cynomolgus monkey assessed as QTc interval; assay type: toxicity, organism-based, Macaca fascicularis; settings: in vivo
Cynomolgus monkey [15] = assay: Cardiotoxicity in cynomolgus monkey assessed as PR interval; assay type: toxicity, organism-based, Macaca fascicularis; settings: in vivo
[16] = target: Voltage-dependent L-type calcium channel subunit alpha-1C (Homo sapiens, UniProt Q13936); assay: Inhibition of human Cav 1.2 ion channel expressed in HEK293 cells by whole-cell patch clamp technique; assay type: cell-based
Voltage-dependent L-type calcium channel subunit alpha-1C, sequence (Q13936 whole entry): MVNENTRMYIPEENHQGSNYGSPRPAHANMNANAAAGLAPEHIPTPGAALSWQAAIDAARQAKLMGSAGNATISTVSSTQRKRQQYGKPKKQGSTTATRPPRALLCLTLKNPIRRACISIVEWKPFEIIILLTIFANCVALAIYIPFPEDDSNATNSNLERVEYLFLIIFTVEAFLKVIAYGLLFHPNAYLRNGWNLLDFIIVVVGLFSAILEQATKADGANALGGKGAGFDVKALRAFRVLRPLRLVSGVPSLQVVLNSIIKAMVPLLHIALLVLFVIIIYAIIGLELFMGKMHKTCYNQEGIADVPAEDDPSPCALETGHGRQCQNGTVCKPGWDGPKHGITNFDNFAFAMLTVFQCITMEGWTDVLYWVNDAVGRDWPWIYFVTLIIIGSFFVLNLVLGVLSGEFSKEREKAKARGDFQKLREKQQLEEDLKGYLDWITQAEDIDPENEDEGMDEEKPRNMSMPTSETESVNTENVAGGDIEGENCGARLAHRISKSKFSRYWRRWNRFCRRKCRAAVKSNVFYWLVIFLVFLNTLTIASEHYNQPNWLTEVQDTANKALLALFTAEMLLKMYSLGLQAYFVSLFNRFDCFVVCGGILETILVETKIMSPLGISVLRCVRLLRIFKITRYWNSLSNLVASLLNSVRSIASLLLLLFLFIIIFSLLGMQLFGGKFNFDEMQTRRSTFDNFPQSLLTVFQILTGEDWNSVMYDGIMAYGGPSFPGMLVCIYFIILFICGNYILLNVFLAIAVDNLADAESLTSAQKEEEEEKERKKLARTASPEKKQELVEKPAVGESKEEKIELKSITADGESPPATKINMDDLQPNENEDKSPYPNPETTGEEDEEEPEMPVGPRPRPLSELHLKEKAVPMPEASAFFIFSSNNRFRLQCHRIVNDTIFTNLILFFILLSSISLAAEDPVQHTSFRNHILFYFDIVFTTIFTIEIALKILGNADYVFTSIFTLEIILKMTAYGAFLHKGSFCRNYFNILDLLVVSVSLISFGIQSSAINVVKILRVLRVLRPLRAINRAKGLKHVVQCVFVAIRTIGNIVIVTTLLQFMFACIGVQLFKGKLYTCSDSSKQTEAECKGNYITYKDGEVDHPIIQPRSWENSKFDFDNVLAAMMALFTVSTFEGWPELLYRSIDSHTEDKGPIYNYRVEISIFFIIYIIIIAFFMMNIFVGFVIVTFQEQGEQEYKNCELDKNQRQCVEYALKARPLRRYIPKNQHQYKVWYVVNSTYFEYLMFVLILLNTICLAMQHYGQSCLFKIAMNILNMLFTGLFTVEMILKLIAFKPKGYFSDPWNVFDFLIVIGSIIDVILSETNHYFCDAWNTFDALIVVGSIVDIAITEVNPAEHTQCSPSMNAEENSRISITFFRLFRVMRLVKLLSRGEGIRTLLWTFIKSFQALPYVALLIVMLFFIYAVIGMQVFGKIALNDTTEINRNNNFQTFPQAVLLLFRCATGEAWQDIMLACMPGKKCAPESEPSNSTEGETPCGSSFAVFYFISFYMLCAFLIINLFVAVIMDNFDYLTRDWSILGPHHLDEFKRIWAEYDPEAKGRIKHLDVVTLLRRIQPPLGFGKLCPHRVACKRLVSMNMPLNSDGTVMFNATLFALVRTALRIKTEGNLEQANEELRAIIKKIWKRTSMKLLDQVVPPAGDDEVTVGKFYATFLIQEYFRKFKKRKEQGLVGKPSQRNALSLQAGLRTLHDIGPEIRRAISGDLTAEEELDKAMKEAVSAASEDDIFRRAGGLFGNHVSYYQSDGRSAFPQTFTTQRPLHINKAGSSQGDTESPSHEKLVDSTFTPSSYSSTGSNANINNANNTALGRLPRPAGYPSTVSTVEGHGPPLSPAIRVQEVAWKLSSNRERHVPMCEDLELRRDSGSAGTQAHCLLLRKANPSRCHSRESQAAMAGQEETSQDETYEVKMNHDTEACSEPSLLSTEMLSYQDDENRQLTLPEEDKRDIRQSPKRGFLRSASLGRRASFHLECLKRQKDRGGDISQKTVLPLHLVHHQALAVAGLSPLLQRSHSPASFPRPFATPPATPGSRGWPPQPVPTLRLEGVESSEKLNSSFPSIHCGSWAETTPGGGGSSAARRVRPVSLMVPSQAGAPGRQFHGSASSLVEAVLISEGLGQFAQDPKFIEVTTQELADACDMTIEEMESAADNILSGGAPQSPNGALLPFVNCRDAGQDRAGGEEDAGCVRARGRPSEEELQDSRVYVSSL

HEK293 [17] = assay: Selectivity ratio of EC50 for human mu opioid receptor expressed in HEK293 cells over EC50 for human kappa opioid receptor expressed in HEK293 cells; assay type: cell-based
[18] = Cardiotoxicity in isolated rabbit left ventricular wedge model assessed as increase in QT interval at 1 uM; assay type: toxicity, tissue-based, Oryctolagus cuniculus, Heart left ventricle
[19] = Cardiotoxicity in isolated rabbit left ventricular wedge model assessed as torsade de pointes score at 0.3 to 1 uM; assay type: toxicity, tissue-based, Oryctolagus cuniculus, Heart left ventricle
HEK293 [20] = assay: Selectivity ratio of EC50 for human mu opioid receptor expressed in HEK293 cells over EC50 for human delta opioid receptor expressed in HEK293 cells; assay type: cell-based
Mus musculus [21] = assay: Toxicity in mouse fecal boli accumulation model assessed as fecal boli production at equianalgesic dose, sc after 4 hrs relative to morphine; assay type: organism-based; settings: in vivo
Mus musculus [22] = assay: Analgesic effect in sc dosed mouse by hot plate assay; assay type: functional
Mus musculus [23] = assay: Analgesic effect in mouse at 3 mg/kg, sc after 30 mins by hot plate assay; assay type: functional; settings: route subcutaneous
Mus musculus [24] = assay: Toxicity in mouse glass bead model assessed as retention time of colonic motility at 3 mg/kg, sc; assay type: organism-based, Colon; set-up: dose 3 mg/kg, route subcutaneous; settings: in vivo
Mus musculus [25] = assay: Analgesic effect in mouse at 6 mg/kg, sc after 30 mins by hot plate assay; assay type: functional; settings: route subcutaneous

T1 sequence (P35372 whole entry): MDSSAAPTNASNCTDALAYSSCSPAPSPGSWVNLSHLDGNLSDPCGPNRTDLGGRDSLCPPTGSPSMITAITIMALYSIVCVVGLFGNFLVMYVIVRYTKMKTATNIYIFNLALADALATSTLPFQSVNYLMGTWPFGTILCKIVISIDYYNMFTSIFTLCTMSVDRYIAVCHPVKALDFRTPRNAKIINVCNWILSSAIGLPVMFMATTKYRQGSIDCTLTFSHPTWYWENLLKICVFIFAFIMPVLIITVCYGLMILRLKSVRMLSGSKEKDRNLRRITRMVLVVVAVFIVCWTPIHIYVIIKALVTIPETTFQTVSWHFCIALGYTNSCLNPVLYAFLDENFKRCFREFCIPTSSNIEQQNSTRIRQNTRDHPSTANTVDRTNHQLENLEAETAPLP

| Structure (SMILES) | EC50 (Mu-type opioid receptor [1]) [nM] | EC50 (Mu-type opioid receptor [2]) [nM] | other results |
| --- | --- | --- | --- |
| c1ccc([C@]2(CCNCC3CCCC3)CCOC3(CCCC3)C2)nc1 | 31.6 |  |  |
| C[C@@H](NCC[C@@]1(c2ccc(F)cc2)CCOC2(CCCC2)C1)c1ccccc1 | 1000 |  |  |
| Cc1ccsc1CNCC[C@@]1(c2ccccn2)CCOC2(CCCC2)C1 | 6.31 |  |  |
| CC1(C)CC(CCNCc2ccccc2)(c2ccc(F)cc2)CCO1 (stereo not drawn) | 1580 |  |  |
| CC[C@]1(C)CC(CCNCc2ccccc2O)(c2ccc(C)cc2)CCO1 (stereo partly drawn) | 501 | 2000 |  |
| Clc1cccc(CNCC[C@@]2(c3ccccn3)CCOC3(CCCC3)C2)c1 | 2.51 | 50.1 |  |
| Fc1ccc([C@@]2(CCNCc3ccccc3)CCOC3(CCCC3)C2)cc1 | 501 | 7940 |  |
| Fc1ccc(C2(CCNCc3ccccc3)CCOC3(CCCCC3)C2)cc1 (stereo not drawn) | 398 | 7940 |  |
| Cc1cc(CNCC[C@@]2(c3ccccn3)CCOC3(CCCC3)C2)sc1C | 5.01 | 501 |  |
| COc1ccsc1CNCC[C@@]1(c2ccccn2)CCOC2(CCCC2)C1 [OLICERIDINE] |  |  | Activity [3]: Non-toxic; IC50 [4]: 6.2 µM; EC50 [5]: 1400 nM; EC50 [6]: 2800 nM; Activity (Cynomolgus monkey [7]): Non-toxic; IC50 [8]: 4.7 µM; Activity (Cynomolgus monkey [9]): Non-toxic; Activity [10]: 7%; Activity [11]: Non-toxic; Activity [12]: 3%; IC50 [13]: 16.5 µM; Activity (Cynomolgus monkey [14]): Non-toxic; Activity (Cynomolgus monkey [15]): Non-toxic; IC50 [16]: 36 µM |
| CC(C)(NCC[C@@]1(c2ccc(F)cc2)CCOC2(CCCC2)C1)c1ccccc1 | 3160 |  |  |
| c1ccc(CNCCC2(c3ccccn3)CCOC3(CCCC3)C2)cc1 (racemic) | 50.1 | 200 |  |
| c1ccc([C@]2(CCNCc3cccnc3)CCOC3(CCCC3)C2)nc1 | 200 |  |  |
| c1ccc(CNCC[C@]2(c3ccccn3)CCOC3(CCCC3)C2)cc1 | 631 | 15800 |  |
| c1ccc([C@]2(CCNCc3cccs3)CCOC3(CCCC3)C2)nc1 | 15.8 | 251 | Ratio EC50 (HEK293 [17]): 71; IC50 [4]: 2.3 µM; EC50 [5]: 900 nM; EC50 [6]: 750 nM; IC50 [8]: 9 µM; Activity [18]: 40%; Activity [19]: Toxic; Ratio EC50 (HEK293 [20]): 56; Activity [10]: 65%; fold change (FC) (Mus musculus [21]): 2; ED50 (Mus musculus [22]): 1.1 mg/kg; MPE (Mus musculus [23]): 79%; Retention_time (Mus musculus [24]): 65 min; IC50 [13]: 20 µM; IC50 [16]: > 100 µM |
| c1ccc([C@]2(CCNCc3ccc4ccccc4c3)CCOC3(CCCC3)C2)nc1 | 158 | 20000 |  |
| CCC1(CC)CC(CCNCc2ccccc2)(c2ccc(F)cc2)CCO1 (stereo not drawn) | 251 | 6310 |  |
| Cc1cc(C)c(CNCC[C@@]2(c3ccccn3)CCOC3(CCCC3)C2)s1 | 25.1 | 631 |  |

| Structure (SMILES) | EC50 (Mu-type opioid receptor [1]) [nM] | EC50 (Mu-type opioid receptor [2]) [nM] | other results |
| --- | --- | --- | --- |
| Cc1ccc(CNCC[C@@]2(c3ccccn3)CCOC3(CCCC3)C2)o1 | 50.1 | 200 |  |
| Clc1ccccc1CNCC[C@@]1(c2ccccn2)CCOC2(CCCC2)C1 | 10 |  |  |
| Cc1ccc(C2(CCNCc3ccccc3O)CCOCC2)cc1 | 10000 |  |  |
| Fc1ccc([C@]2(CCNCc3ccccc3)CCOC3(CCCC3)C2)cc1 | 31.6 | 398 |  |
| c1ccc([C@]2(CCNCc3ccncn3)CCOC3(CCCC3)C2)nc1 | 794 | 2000 |  |
| CN1CC[C@]23c4c5ccc(O)c4O[C@H]2[C@@H](O)C=C[C@H]3[C@H]1C5 [MORPHINE] |  |  | MPE (Mus musculus [25]): 69% |
| c1ccc([C@]2(CCNCc3cnccn3)CCOC3(CCCC3)C2)nc1 | 631 |  |  |
| Fc1ccc(C2(CCNCc3ccccc3)CCOC3(CCCC3)C2)cc1 (racemic) | 79.4 | 631 |  |
| c1ccc([C@]2(CCNCc3ccncc3)CCOC3(CCCC3)C2)nc1 | 1260 |  |  |
| C[C@H](NCC[C@@]1(c2ccc(F)cc2)CCOC2(CCCC2)C1)c1ccccc1 | 501 |  |  |
| Cc1csc(CNCC[C@@]2(c3ccccn3)CCOC3(CCCC3)C2)c1 | 5.01 | 398 |  |
| c1ccc([C@]2(CCNCc3ccsc3)CCOC3(CCCC3)C2)nc1 | 12.6 | 63.1 |  |
| c1ccc(CNCC[C@@]2(c3ccccn3)CCOC3(CCCC3)C2)cc1 | 12.6 | 158 |  |
| c1ccc(CNCC[C@@]2(c3ccccn3)CCOC3(CCCC3)C2)nc1 | 158 |  |  |
| CC[C@]1(C)CC(CCNCc2ccccc2O)(c2ccc(F)cc2)CCO1 (stereo partly drawn) | 39.8 | 1580 |  |
| Cc1ccc(CNCC[C@@]2(c3ccccn3)CCOC3(CCCC3)C2)s1 | 15.8 |  |  |
| Cc1cc(CNCC[C@@]2(c3ccccn3)CCOC3(CCCC3)C2)oc1C | 31.6 | 316 |  |

Source: ChEMBL document CHEMBL2440083 (J Med Chem, 2013)
